Experimental findings from patent publication US9376492B2, “Treatment of cancer” (Asclepiumm Limited, priority 2009, dated 2016) are described below.

“Also recorded” adds a separate entry of the source.

The subject of experiment [1] is MDCK cells. Description: Blocking EMT assay (HGF/SF-induced EMT). It counts as cell-based. As to conditions: 2.5 ng/ml HGF/SF, 24 h. On the procedure:
Blocking EMT Assay: Antibodies or peptides were added to 10% sub-confluent MDCK cells cultured in standard medium with 2.5 ng/ml HGF/SF in 96-well plates for 24 h. EMT was induced by HGF/SF in MDCK cells without any antibody or peptide treatment. The effects of different antibodies and peptides in blocking EMT were investigated by adding different concentrations of them to 10% sub-confluent MDCK cells cultured in standard medium with 2.5 ng/ml HGF/SF.

The subject of experiment [2] is human breast cancer MCF7 cells. Description: Cell invasion assay (Matrigel), MCF7. As to conditions: human breast cancer MCF7 cells in Matrigel. The class given is cell-based. As to the method: Cell Invasion Assay: Growth Factor-Reduced Matrigel™ Matrix (BD, Becton Dickinson Biosciences, Bedford, Mass., USA) was thawed in the fridge one day prior to its use. The Matrigel matrix was mixed by pre-cooled pipettes to homogeneity on ice. Four μl of the cell suspension (1×10^6 cells/ml) in standard medium without (Control) or with 1 μl different concentrations of antibody or peptide was mixed with 95 μl of Matrigel matrix in a cold Eppendorf tube. After thorough mixing using cooled pipettes, 30 μl of the cells in the Matrigel mixture was added to 48-well plates. The plates were incubated at 37° C. in a CO2 incubator for 1 h to polymerize the droplet mixtures. 250 μl of standard medium was added to cover the cell/Matrigel droplet and incubated for several days. Blindly-selected cell invasion images were recorded in four areas within a cell/Matrigel droplet by a Nikon 4500 Coolpix digital camera under the microscope.

As to “EELSAAHTLV (listed as Homo sapiens) [Peptide 7]”, the “inhibition of EMT” value in experiment [1] is “significantly blocked; also recorded: significantly inhibited”. Further, in experiment [2], the “inhibition of cell invasion ability” value is given as “significantly inhibited”.
For “KINATDADEPNTLNSKISYR (listed as Homo sapiens) [Peptide 4]”, in experiment [1], the “inhibition of EMT” value is recorded as “significantly blocked; also recorded: significantly inhibited”. Besides, in experiment [2], the “inhibition of cell invasion ability” value is recorded as “significantly inhibited”.
